Assay: Photoacoustic characteristic evaluation (photoacoustic signal measurement)
Conditions: pulse laser 790 nm, 12 mJ/cm^2; contrast agent in distilled water
Experimental: Regarding the measurement of a photoacoustic signal, a sample was irradiated with pulse laser light, a photoacoustic signal from the sample was detected by using a piezoelectric element and was measured by a digital oscilloscope after being amplified by a high-speed preamplifier. Specific conditions were as described below. A titanium sapphire laser (produced by Lotis) was used as a light source. Regarding the conditions, the wavelength was 790 nm, the energy density was 12 mJ/cm^2, the pulse width was 20 nanoseconds, and the pulse repetition was 10 Hz. Model V303 (produced by Panametrics-NDT) was used as an ultrasonic transducer. Regarding the conditions, the center band was 1 MHz, the element size was φ0.5, the measurement distance was 25 mm (non-focus), and the amplification was +30 dB (ultrasonic preamplifier Model 5682 produced by Olympus Corporation). A measurement container was a polystyrene cuvette, the optical path length was 0.1 cm, and the sampling capacitor was about 200 μL. The measurement was performed by using DPO4104 (produced by Tektronix Corporation), where the conditions were as described below, trigger: photoacoustic light was detected by a photodiode data acquisition: average of 128 times (128 pulses)

In the case of CC1(C)C(/C=C/C=C/C=C/C=C2\N(CCCCS(=O)(=O)O)c3ccc4ccccc4c3C2(C)C)=[N+](CCCCS(=O)(=O)[O-])c2ccc3ccccc3c21 [Contrast agent (C-1), Indocyanine green], the “Photoacoustic signal intensity ratio” value was 1.0.

— patent publication US20160361445A1, “COMPOUND OR SALT THEREOF AND PHOTOACOUSTIC IMAGING CONTRAST AGENT CONTAINING COMPOUND OR SALT THEREOF” (CANON KABUSHIKI KAISHA, priority 2015, published 2016)
